For 52 compounds, IC50 results are on record in patent US20210139484A1, “DIHYDROISOQUINOLINE-2(1H)-CARBOXAMIDE AND RELATED COMPOUNDS AND THEIR USE IN TREATING MEDICAL CONDITIONS” (GOSSAMER BIO SERVICES, INC., priority 2018, published 2021).

Structures are written as SMILES. Some results are limits rather than exact numbers.

The first experiment deals with T1, human HPK1 protein (Homo sapiens, UniProt Q92918).
T1 construct: recombinant human HPK1 protein (a.a. 1-346) was expressed in Sf9 insect cells; GST (N); purchased Signalchem M23-11G; host or cells: Sf9 insect cells (baculovirus)
T1 sequence (Q92918 1-346): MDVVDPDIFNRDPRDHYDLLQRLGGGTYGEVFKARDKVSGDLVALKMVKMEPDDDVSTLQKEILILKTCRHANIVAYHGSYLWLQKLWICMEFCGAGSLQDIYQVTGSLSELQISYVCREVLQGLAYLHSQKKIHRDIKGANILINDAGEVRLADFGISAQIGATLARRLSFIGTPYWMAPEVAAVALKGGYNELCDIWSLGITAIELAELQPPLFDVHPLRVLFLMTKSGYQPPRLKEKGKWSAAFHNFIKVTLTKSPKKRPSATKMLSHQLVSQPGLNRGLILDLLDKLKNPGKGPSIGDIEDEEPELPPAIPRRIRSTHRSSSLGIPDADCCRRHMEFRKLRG
As to the kind of experiment: Human HPK1 protein TR-FRET assay. The class given is biochemical. The conditions noted are these: 1 mM ATP, Table 19. In a few lines:
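Read-out was TR-FRET using Eu-labeled anti-phospho-CREB (Ser133) antibody, with the 665/615 nm signal ratio normalised to DMSO-only wells and fitted by a 4-parameter logistic model for IC50. Reactions held 10 nM Sf9-expressed GST-HPK1 (a.a. 1-346), 100 nM CREBtide and 1 mM ATP, run 60 minutes at room temperature, pH 7.5.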
On to `CCC1CN(C(=O)Nc2ccc(CN3CCN(CC)CC3)c(C(F)(F)F)c2)Cc2cc(Oc3ccnc4[nH]ccc34)ccc21` (stereo not shown) [IV-21], for which the concentration for half-maximal inhibition (IC50) is under 500 nM.

Compound `CCN1CCN(Cc2ccc(NC(=O)N3Cc4cc(Oc5ccnc6[nH]c(C)cc56)cnc4C(C)C3)cc2C(F)(F)F)CC1` (single isomer, unassigned) [VII-5] displayed a half-maximal inhibitory concentration (IC50) of under 500 nM.

Consider `CCN1CCN(Cc2ccc(NC(=O)N3CCc4cc(C)c(Oc5ccnc6[nH]ccc56)cc4C3)cc2C(F)(F)F)CC1` [III-1], for which the IC50 is under 500 nM.

`CCN1CCN(Cc2ccc(NC(=O)N3CCc4ccc(Oc5ccnc6[nH]ccc56)c(F)c4C3)cc2C(F)(F)F)CC1` [III-3] showed an IC50 of under 500 nM.

`CCN1CCN(Cc2ccc(NC(=O)N3CCc4ccc(Oc5ccnc6[nH]c(C7CC7)cc56)cc4[C@@H]3C)cc2C(F)(F)F)CC1` [V-26] gave an IC50 of under 500 nM.

As to `CCN1CCN(Cc2ccc(NC(=O)N3CCc4ccc(Oc5ccnc(NC(=O)C6CC6)c5)cc4C3)cc2C(F)(F)F)CC1` [II-15], the half-maximal inhibitory concentration (IC50) was under 500 nM.

As to `CCN1CCN(Cc2ccc(NC(=O)N3CCc4ncc(Oc5ncnc6[nH]ccc56)cc4C3)cc2C(F)(F)F)CC1` [VII-2], the IC50 lay in the range of 500 to 5000 nM.

On to `CCN1CCN(Cc2ccc(NC(=O)N3CCc4ccc(Oc5ccnc6[nH]ncc56)cc4[C@@H]3C)cc2C(F)(F)F)CC1` [V-5], for which the IC50 was under 500 nM.

Consider `CCN1CCN(Cc2ccc(NC(=O)N3CCc4ccc(Oc5ccnn6cc(-c7c[nH]cn7)cc56)cc4C3)cc2C(F)(F)F)CC1` [II-25], for which the IC50 is under 500 nM.

On to `CCN1CCN(Cc2ccc(NC(=O)N3CCc4c(C)cc(Oc5ccnc6[nH]ccc56)cc4C3)cc2C(F)(F)F)CC1` [III-9], for which the IC50 was under 500 nM.

The compound `CCN1CCN(Cc2ccc(NC(=O)N3CCc4ccc(Oc5ncnc6[nH]ccc56)cc4C3)cc2C(F)(F)F)CC1` [II-3] displayed an IC50 of under 500 nM.

Consider `CCN1CCN(Cc2ccc(NC(=O)N3Cc4cc(Oc5ccnc6[nH]c(C)cc56)ccc4C(C)C3)cc2C(F)(F)F)CC1` (stereo not shown) [IV-18], for which the IC50 was under 500 nM.

Consider `CCN1CCN(Cc2ccc(NC(=O)N3CCc4c(F)cc(Oc5ccnc6[nH]ccc56)cc4C3C)cc2C(F)(F)F)CC1` (stereo not shown) [IV-14], for which the IC50 was under 500 nM.

For the compound `CCN1CCN(Cc2ccc(NC(=O)N3CCc4cc(F)c(Oc5ncnn6cccc56)cc4C3C)cc2C(F)(F)F)CC1` (stereo not shown) [IV-35], the IC50 is under 500 nM.

With `CCc1cc2c(Oc3ccc4c(c3)[C@H](C)N(C(=O)Nc3ccc(CN5CCN(CC)CC5)c(C(F)(F)F)c3)CC4)ccnc2[nH]1` [V-22], the IC50 was under 500 nM.

As for `CCN1CCN(Cc2ccc(NC(=O)N3CCc4ccc(Oc5ccnc(C(N)=O)c5)cc4[C@@H]3C)cc2C(F)(F)F)CC1` [V-12], the IC50 is 500 to 5000 nM.

Turning to `CCN1CCN(Cc2ccc(NC(=O)N3Cc4cc(Oc5ccnc6[nH]ncc56)cnc4C(C)C3)cc2C(F)(F)F)CC1` (stereo not shown) [VII-17], the IC50 was under 500 nM.

Compound `Cc1cc2c(Oc3ccc4c(c3)[C@H](C)N(C(=O)Nc3cnc(OC5CCN(C)CC5C)c(C(F)(F)F)c3)CC4)ccnc2[nH]1` (stereo in doubt) [VI-5] had a concentration for half-maximal inhibition (IC50) of under 500 nM.

As to `CCCC1CN(C(=O)Nc2ccc(CN3CCN(CC)CC3)c(C(F)(F)F)c2)Cc2cc(Oc3ccnc4[nH]c(C)cc34)ccc21` (stereo not shown) [IV-37], the IC50 is under 500 nM.

As to `CCN1CCN(Cc2ccc(NC(=O)N3CCc4ccc(Oc5ccnn6cc(C#N)cc56)cc4[C@@H]3C)cc2C(F)(F)F)CC1` [V-8], the IC50 is under 500 nM.

`Cc1cc2c(Oc3ccc4c(c3)[C@H](C)N(C(=O)Nc3cnc(OC5CCN(C)CC5F)c(C(F)(F)F)c3)CC4)ccnc2[nH]1` (stereo in doubt) [VI-11] registered an IC50 of 500 to 5000 nM.

`Cc1cc2c(Oc3cnc4c(c3)CN(C(=O)Nc3cnc(OC5CCN(C)CC5)c(C(F)(F)F)c3)CC4C)ncnc2[nH]1` (stereo not shown) [VII-13] displayed an IC50 of under 500 nM.

`CCN1CCN(Cc2ccc(NC(=O)N3CCc4ccc(Oc5ccnc6[nH]c(CCOC)cc56)cc4[C@@H]3C)cc2C(F)(F)F)CC1` [V-25] yielded an IC50 of under 500 nM.

With `CCN1CCN(Cc2ccc(NC(=O)N3CCc4ccc(Oc5ccnc6[nH]cnc56)cc4C3)cc2C(F)(F)F)CC1` [II-20], the concentration for half-maximal inhibition (IC50) is under 500 nM.

The experiment is the same for the next values; noted with them: 1 mM ATP, Table 20.
Compound `C[C@H]1c2cc(Oc3ccnc4[nH]c(C5(O)COC5)cc34)ccc2CCN1C(=O)Nc1cnc(OC2CCN(C)CC2)c(C(F)(F)F)c1` [XIII-4] displayed an IC50 of under 500 nM.

As for `CC[C@@H]1CN(C(=O)Nc2ccc(CN3CCNCC3)c(C(F)(F)F)c2)Cc2cc(Oc3ccnc4[nH]c(C5(O)COC5)cc34)cnc21` [XIV-48], the IC50 was under 500 nM.

The compound `CC[C@@H]1CN(C(=O)Nc2ccc(CN3CCNCC3)c(C(F)(F)F)c2)Cc2cc(Oc3ccnc4[nH]c(CO)cc34)ccc21` [XV-4] registered a 50% inhibitory concentration (IC50) of under 500 nM.

`CN1CCN(Cc2ncc(NC(=O)N3CCc4ccc(Oc5c(F)cnc6[nH]c(-c7cccnc7)cc56)cc4C3)cc2C(F)(F)F)CC1` [XII-6] returned an IC50 of under 500 nM.

As for `CN1CCN(Cc2ccc(NC(=O)N3Cc4cc(Oc5ccnc6[nH]c(C7(O)CC7)cc56)ccc4C(C(F)(F)F)C3)cc2C(F)(F)F)CC1` (stereo not shown) [XVIII-12], the IC50 was under 500 nM.

As to `CCN1CCN(Cc2ccc(NC(=O)N3Cc4cc(Oc5ccnc6[nH]c(=O)ccc56)cnc4C(C)C3)cc2C(F)(F)F)CC1` (single isomer, unassigned) [XIV-2], the IC50 was under 500 nM.

In turn, `CC[C@H]1CN(C(=O)Nc2ccc(CN3CCNCC3)c(C(F)(F)F)c2)Cc2cc(Oc3ccnc4[nH]c(C#N)cc34)ccc21` [XV-17] showed an IC50 of under 500 nM.

Compound `CN1CCN(Cc2ccc(NC(=O)N3CCc4ccc(Oc5ccnc6[nH]c(C7(O)CC7)cc56)cc4C3)cc2C(F)(F)F)CC1` [XVIII-10] gave an IC50 of under 500 nM.

For the compound `CC[C@H]1CN(C(=O)Nc2ccc(CN3CCNCC3)c(C(F)(F)F)c2)Cc2cc(Oc3ccnc4[nH]c(CO)cc34)cnc21` [XIV-55], the IC50 is under 500 nM.

The compound `CCC1CN(C(=O)Nc2ccc(CN3CCN(CC)CC3)c(C(F)(F)F)c2)Cc2cc(Oc3ccnc4[nH]c(C5=CCOC5)cc34)cnc21` (stereo not shown) [XIV-62] registered an IC50 of under 500 nM.

As to `C[C@H]1CN(C(=O)Nc2ccc(CN3CCN(C)CC3)c(C(F)(F)F)c2)Cc2cc(Oc3c(F)cnc4[nH]c(-c5cnn(C)c5)cc34)ccc21` [XII-12], the half-maximal inhibitory concentration (IC50) was under 500 nM.

`C[C@H]1CN(C(=O)Nc2ccc(CN3CCN(C)CC3)c(C(F)(F)F)c2)Cc2cc(Oc3c(F)cnc4[nH]c(C5(O)COC5)cc34)cnc21` [XIV-88] returned an IC50 of under 500 nM.

On to `CN1CCN(Cc2ncc(NC(=O)N3CCc4ccc(Oc5c(F)cnc6[nH]c(-c7cn[nH]c7)cc56)cc4C3)cc2C(F)(F)F)CC1` [XII-8], for which the 50% inhibitory concentration (IC50) is under 500 nM.

As for `CCN1CCN(Cc2ccc(NC(=O)N3Cc4cc(Oc5ccnc6[nH]ccc56)cnc4[C@H](C)C3)cc2C(F)(F)F)CC1` [XI-11], the IC50 is under 500 nM.

On to `CCN1CCN(Cc2ccc(NC(=O)N3Cc4cc(Oc5ccnc6[nH]c(C)cc56)cnc4[C@H](C)C3)cc2C(F)(F)F)CC1` [XI-5], for which the IC50 was under 500 nM.

Regarding `CC[C@H]1CN(C(=O)Nc2ccc(CN3CCNCC3)c(C(F)(F)F)c2)Cc2cc(Oc3ccnn4cc(C(=O)NC)nc34)cnc21` [XIV-129], the IC50 is 500 to 5000 nM.

Compound `CN1CCN(Cc2cc(F)c(NC(=O)N3CCc4ccc(Oc5c(F)cnc6[nH]c(-c7cnn(C)c7)cc56)cc4C3)cc2C(F)(F)F)CC1` [XII-16] registered an IC50 of under 500 nM.

As to `CN1CC[C@@H](Oc2ncc(NC(=O)N3CCc4ccc(Oc5c(F)cnc6[nH]c(-c7cnn(C)c7)cc56)cc4C3)cc2C(F)(F)F)[C@@H](O)C1` [XII-4], the IC50 was under 500 nM.

Regarding `CC[C@@H]1CN(C)CC[C@H]1Oc1ncc(NC(=O)N2CCc3ccc(Oc4ccnc5[nH]c(C)cc45)cc3[C@@H]2C)cc1C(F)(F)F` [XIII-1], the IC50 is under 500 nM.

Turning to `CC[C@H]1CN(C(=O)Nc2ccc(CN3CCN(C)CC3)c(C(F)(F)F)c2)Cc2cc(Oc3ccnc4[nH]c(C(=O)N5CC[C@H](O)C5)cc34)cnc21` [XIV-109], the IC50 was under 500 nM.

`CN1CCN(Cc2ncc(NC(=O)N3CCc4ccc(Nc5c(F)cnc6[nH]c(-c7cnn(C)c7)cc56)cc4C3)cc2C(F)(F)F)CC1` [XVII-2]: the IC50 is under 500 nM.

For the compound `CCN1CCN(Cc2ccc(NC(=O)N3Cc4cc(Oc5ccnc6[nH]c(=O)cnc56)cnc4C(C)C3)cc2C(F)(F)F)CC1` (single isomer, unassigned) [XIV-7], the IC50 lay within 500 to 5000 nM.

Compound `CC[C@H]1CN(C(=O)Nc2ccc(CN3CCN(C)CC3)c(C(F)(F)F)c2)Cc2cc(Oc3ccnc4[nH]c(C5CC5)cc34)cnc21` [XIV-72] displayed an IC50 of under 500 nM.

As for `CCN1CCN(Cc2ccc(NC(=O)N3Cc4cc(Oc5c(F)cnc6[nH]c(CO)cc56)cnc4[C@@H](C)C3)cc2C(F)(F)F)CC1` [XIV-95], the IC50 is under 500 nM.

Turning to `CC[C@H]1CN(C(=O)Nc2ccc(CN3CCNCC3)c(C(F)(F)F)c2)Cc2cc(Oc3c(F)cnc4[nH]c(C(=O)N(C)C)cc34)cnc21` [XIV-145], the IC50 is under 500 nM.

As to `C[C@H]1CN(C(=O)Nc2ccc(CN3CCN(C)CC3)c(C(F)(F)F)c2)Cc2cc(Oc3ccnc4[nH]c(C(N)=O)cc34)cnc21` [XIV-86], the IC50 was under 500 nM.

As for `CC[C@H]1CN(C(=O)Nc2ccc(CN3CCN(C)CC3)c(C(F)(F)F)c2)Cc2cc(Oc3ccnc4[nH]c(C5=CCOC5)cc34)cnc21` [XIV-151], the IC50 is under 500 nM.

On to `CCN1CCN(Cc2ccc(NC(=O)N3Cc4cc(Oc5ccnc6[nH]c(C7CC7)nc56)cnc4C(C)C3)cc2C(F)(F)F)CC1` (single isomer, unassigned) [XIV-15], for which the IC50 is under 500 nM.

A word on the IC50: it is the concentration at which inhibition is half-maximal.
